Test results as given in US20040116418A1, “Compounds and methods for inhibition of HIV and related viruses” (Medivir AB, priority 1994, published 2004).
Where “and” joins values, the source holds several entries; their conditions need not be identical. Equal values may be shown once. Read-outs that look alike come from different tables or passages of the source.

Experiments:
recombinant HIV-RT = recombinant HIV-RT (Human immunodeficiency virus type 1 group M subtype B, UniProt P04585); test: Test I (HIVRT (rAdt)): direct inhibitory activity on HIV-RT; type: biochemical
Method: 100 mM Tris-HCl pH 7.6, 100 mM KCl, 4 mM MgCl2, 4 mM DTT, 275 mg/ml BSA, 0.5 mg (rA)n(dT)12-18 and 0.3 mM ^3H-=dTTP (specific activity 18.000 cpm/mol). After 60 minutess of incubation 40 ml in duplicate were spotted on paper discs and washed in 5% TCA. After rinsing the paper discs in ethanol they were dried and counted in scintillation fluid.

HIV virus = test: Test A (XTT): reduction of virus-caused cytotoxicity in MT4 cells; type: cell-based; conditions: for inhibition at 0.01 µg/mL: 0.01 μg/ml; for % inhibition: Test A
Method: Tests A, B, C, and D (XTT)
MT4 cells in a medium of RPMI 1640, 5% FCS, penicillin/streptomycin are adjusted to 2×10^5 cells/ml and seeded into microplates (96 wells/plate) […] cell suspension/well giving 2×10^4 cells/well. The compound to be tested is made into a 10 mg/ml mixture in DMSO and stored at −20° C. […] Further dilutions to […] are made in medium containing microplates. Fifty ml of the 400, 40, and 4 mg/ml are transferred to the cell-containing microplates with a multi-channel pipette (final concentration: 100, 10, and 1 mg/ml). Finally, […] of virus suspension is added to each well (with a repetitive “Eppendorf” multipipett). […] The plate is put into a plastic bag and incubated for six days in CO2 atmosphere.
To each well in the plate is added 50 ml of XTT ((2,3-bis[2-methoxy-4-nitro-5-sulfophenyl]-5-[(phenylamin o)carbonyl]-2H-tetrazolium hydroxide), (1 mg/ml 0.01-0.02 mM N-metyl-phenazonium methosulfate). After six hours of incubation in C02 atmosphere the plates are covered with adhesive plate sealers and gently mixed on a vortex. Optical densities are determined at a wavelength of 450 nm and a reference wavelength of 650 nm. The percent reduction of cytotoxocity caused by the virus infection is calculated as follows: [formula]

[1] = headed 0.1 μg/ml (after 0.001 μg/ml)
[2] = Human immunodeficiency virus 1, MT4
[3] = Human immunodeficiency virus 1, MT4, Test A
[4] = Human immunodeficiency virus 1, MT4, Test A, 100 μg/ml, read-out: % inhibition

Which IC50 (recombinant HIV-RT) does the source give for CC(=O)c1ccc(F)c(CCNC(=O)Nc2ccc(Cl)cn2)c1O [Example 58] here?
The IC50 was 38 ng/mL.

With O=C(Nc1ccc(Cl)cn1)N[C@H]1CC1c1c(F)cccc1F (some centres unmarked) as the compound, how does the “% inhibition” value (recombinant HIV-RT; 0.001 μg/ml) read?
Its value is 62%.

What about the inhibition at 0.001 µg/mL (recombinant HIV-RT; 0.001 μg/ml) of the same compound?
Its inhibition at 0.001 µg/mL is 55%.

What about the “% inhibition” value (recombinant HIV-RT; 0.01 μg/ml) of the same compound?
Its value is 93%.

What about the inhibition at 0.01 µg/mL (recombinant HIV-RT; 0.01 μg/ml) of the same compound?
Its inhibition at 0.01 µg/mL is 89%.

What about the “% inhibition” value (recombinant HIV-RT; 0.1 μg/ml) of the same compound?
Its value is 97%.

What about the inhibition at 0.1 µg/mL (recombinant HIV-RT; 0.1 μg/ml) of the same compound?
The inhibition at 0.1 µg/mL was 98%.

What about the inhibition at 1 µg/mL (recombinant HIV-RT; 1 μg/ml) of the same compound?
The inhibition at 1 µg/mL was 100%.

What about the “% inhibition” value (recombinant HIV-RT; [1]) of the same compound?
Its value is 6% and 16%.

What about the inhibition at 0.1 µg/mL (HIV virus; [2]) of the same compound?
Its inhibition at 0.1 µg/mL is 100%.

And the inhibition at 10 µg/mL (HIV virus; [2])?
Its inhibition at 10 µg/mL is 100%.

What about the inhibition at 100 µg/mL (HIV virus; [2]) of the same compound?
Its inhibition at 100 µg/mL is 100%.

And the inhibition at 0.001 µg/mL (HIV virus; Human immunodeficiency virus 1, MT4, Test A, 0.001 μg/ml)?
The inhibition at 0.001 µg/mL was 7%.

And the inhibition at 0.01 µg/mL (HIV virus; [3])?
Its inhibition at 0.01 µg/mL is 80%.

And the inhibition at 100 µg/mL (HIV virus; [4])?
The inhibition at 100 µg/mL was 3%.

And the “% inhibition” value (HIV virus; 0.001 μg/ml)?
Its value is 8%.

What about the “% inhibition” value (HIV virus; 1 μg/ml) of the same compound?
The value was 90%.

What does the source list for CCOc1ccc(F)c(C2C[C@@H]2NC(=O)Nc2ccc(Cl)cn2)c1Cl (some centres unmarked)?
% inhibition (recombinant HIV-RT; 0.001 μg/ml): 30%; inhibition at 0.001 µg/mL (recombinant HIV-RT; 0.001 μg/ml): 46%; % inhibition (recombinant HIV-RT; 0.01 μg/ml): 80%; inhibition at 0.01 µg/mL (recombinant HIV-RT; 0.01 μg/ml): 82%; inhibition at 0.1 µg/mL (recombinant HIV-RT; 0.1 μg/ml): 96%; % inhibition (recombinant HIV-RT; 1 μg/ml): 97%; inhibition at 1 µg/mL (recombinant HIV-RT; 1 μg/ml): 99%; IC50 (recombinant HIV-RT; read-out: IC50 (converted)): 2.86 nM and 5.21 nM; inhibition at 0.01 µg/mL (HIV virus; [3]): 100%; inhibition at 0.1 µg/mL (HIV virus; Human immunodeficiency virus 1, MT4, Test A, 0.1 μg/ml, read-out: % inhibition): 100%; inhibition at 1 µg/mL (HIV virus; Human immunodeficiency virus 1, MT4, Test A, 1 μg/ml): 87%; inhibition at 10 µg/mL (HIV virus; Human immunodeficiency virus 1, MT4, Test A, 10 μg/ml, read-out: % inhibition): 88%; inhibition at 100 µg/mL (HIV virus; [4]): 24%; % inhibition (HIV virus; 100 μg/ml): 30%

Which “% inhibition” value (recombinant HIV-RT; [1]) does the source give for CCOc1ccc(F)c(CCNC(=O)Nc2ccc(Br)cn2)c1Cl here?
The value was 13% and 18%.

Which melting point does the source give for CC(NC(=O)Nc1ccc(Br)cn1)c1ncccc1F (centres unmarked) [Example 10, N-(3-Fluoropyrid-2-yl)eth-2yl-N′-(5-bromopyrid-2-yl)-urea] here?
The melting point was 151 to 154 °C.

For COCOc1c(C(C)=O)ccc(F)c1[C@H]1C[C@H]1NC(=O)Nc1ccc(Cl)cn1 (relative stereo) [Example 56, (+,−)-N-(cis-2-(5-Acetyl-2-fluoro-6-methoxymethoxy-phenyl)cyclopropyl)-N′-(5-chloropyrid-2-yl)-urea], which IC50 (recombinant HIV-RT) is on record?
The IC50 was 2.2 ng/mL.

With N#Cc1ccc(NC(=O)N[C@@H]2C[C@@H]2c2c(F)cccc2Cl)nc1 (relative stereo) [Example 33, N-(cis-2-(2-chloro-6-fluorophenyl)-cyclopropyl)-N′-(5-cyanopyrid-2-yl)-urea] as the compound, how does the melting point read?
The melting point was 189 °C.

Which IC50 (recombinant HIV-RT) does the source give for O=C(Nc1ccc(Br)cn1)N[C@@H]1C[C@H]1c1c(F)cccc1F (relative stereo) [Example 27, (1R,2S)-N-(cis-2-(2,6-Difluorophenyl)-cyclopropyl)-N′-(5-bromopyrid-2-yl)-urea] here?
Its IC50 is 0.5 ng/mL and 0.6 ng/mL.

For O=C(Nc1ccc(Cl)cn1)N[C@@H]1C[C@@H]1c1cccc([N+](=O)[O-])c1 (racemic) [Example 21, (+,−)-N-(cis-2-(3-Nitrophenyl)-cyclopropyl)-N′-(5-chloropyrid-2-yl)-urea], which IC50 (recombinant HIV-RT; read-out: IC50 (converted)) is on record?
The IC50 was 150 nM.

Which IC50 (recombinant HIV-RT; read-out: IC50 (converted)) does the source give for CC(=O)c1cccc([C@H]2C[C@H]2NC(=O)Nc2ccc(Cl)cn2)c1 (racemic) [Example 23, (+,−)-N-(cis-2-(3-Acetylphenyl)-cyclopropyl)-N′-(5-chloropyrid-2-yl)-urea] here?
Its IC50 is 15.2 nM and 42.5 nM.
